Measured values as given in patent US9187458B2, “Cyanoquinoline derivatives” (Tianjin Hemay Bio-Tech Co., LTD., priority 2010, dated 2015).

Key:
NCI-H460 cells = assay: NCI-H460 Cell Growth Inhibition Test (MTT Assay); format: cell-based; details: Homo sapiens, 72 h incubation
Method in brief: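 Cells seeded at 2500 per well, left overnight, then exposed to compound for 72 h at 37 °C, 5% CO2. Viability by MTT (0.5 mg/ml, 3 h), DMSO-dissolved, OD 490 nm; inhibition ratio = (PC−n)/(PC−NC)×100%, IC50 from curve fit.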

Fadu cells = assay: Fadu Cell Growth Inhibition Test (MTT Assay); format: cell-based; details: Homo sapiens, 72 h incubation
Method in brief: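 Fadu head and neck cancer cells in EMEM + 10% FBS, 6000 cells/well, dosed next day and incubated 72 h at 37 °C, 5% CO2. MTT 0.5 mg/ml for 3 h, DMSO solubilization, OD at 490 nm; inhibition ratio from positive and negative controls, IC50 from fitted curve.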

LoVo cells = assay: LoVo Cell Growth Inhibition Test (MTT Assay); format: cell-based; details: Homo sapiens, 72 h incubation
Procedure: LoVo Cell Growth Inhibition Test (MTT Assay)
1. Cell strains: LoVo (human intestinal cancer cell strains);
1. A plate (10 cm) of cells in logarithmic growth phase normally cultured was collected;
2. The culture solution was sucked out. The plate was washed with 5 ml of PBS 1-2 times;
3. PBS was sucked out. 2 ml of 0.25% pancreatin was added to infiltrate the cells for 1 min;
4. The pancreatin was sucked out. The culture plate was placed in an incubator. Digestion was carried out for about 4 min at 37° C.;
5. 4 ml of complete culture solution was added in the culture plate to stop the digestion. The cells were carefully scoured with micropipette (1 ml) to give a uniform cell suspension. The suspension was implanted into a 96-well cell culture plate by 3000-4000 cells/100 μl per well. The culture plate was incubated overnight under 5% CO2 at 37° C. In day 2, 100 μl of culture solution comprising a compound was added into each well, and further incubated for 72 h under 5% CO2 at 37° C.
6. The culture solution was sucked out;
7. 100 μl of serum-free culture solution containing 0.5 mg/ml MTT was added in each well, and incubated for 4 h;
8. The culture solution was carefully sucked out;
9. 100 μl of DMSO was added in each well and vibrated to dissolve;
10. OD values were determined at 490 nM.
1. Calculation of Relative Inhibition Ratio The inhibition ratio of a compound on cell growth=(PC−n)/(PC−NC)×100%
IC50: Concentration of a compound where inhibition ratio was 50%. IC50 values were fitted with Origin7.5.

BT-474 cells = assay: BT-474 Cell Growth Inhibition Test (SRB Assay); format: cell-based, human; details: 70 h incubation; for IC50 / inhibition at 1 µM: Homo sapiens; for Growth Inhibition Ratio (%) / inhibition at 1 µM: compound 1 μM; for inhibition at 1 µM: BT-474, 70 h, read-out: Growth Inhibition Ratio (%)
Method in brief: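 Human breast tumour BT-474 cells (1×10^5/ml seeding, overnight) exposed to compound 70 h at 37 °C, 5% CO2; TCA-fixed, SRB-stained, dye dissolved in 10 mM Tris and OD read at 570 nm. Inhibition ratio = (PC−n)/(PC−NC)×100%; IC50 is the concentration giving 50% inhibition, from fitted curves.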

AsPC-1 cells = assay: AsPC-1 Cell Growth Inhibition Test (MTT Assay); format: cell-based; details: Homo sapiens, ASPC1, 72 h incubation
Method in brief: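 Human pancreatic cancer AsPC-1 cells seeded at 8000 cells/well, incubated overnight, then exposed to compound for 72 h at 37 °C, 5% CO2. Viability read by MTT (0.5 mg/ml, 3 h), formazan dissolved in DMSO, OD at 490 nm. Inhibition ratio = (PC−n)/(PC−NC)×100%; IC50 = concentration giving 50% inhibition, curve-fitted.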

A549 cells = assay: A549 Cell Growth Inhibition Test (MTT Assay); format: cell-based; details: Homo sapiens, 72 h incubation
Method in brief: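 Human lung cancer A549 cells, seeded at 2500 cells per well, were exposed to compound for 72 h at 37° C., 5% CO2. Viability by MTT (0.5 mg/ml, 3 h), DMSO-dissolved, OD at 490 nm; IC50 fitted from inhibition ratio relative to controls.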

IC50 (NCI-H460 cells) [nM] | IC50 (LoVo cells) [nM] | IC50 (BT-474 cells) [nM] | IC50 (AsPC-1 cells) [nM] | IC50 (A549 cells) [nM] | Structure (SMILES) | IC50 (Fadu cells) [nM] | Growth Inhibition Ratio (%) (BT-474 cells) | inhibition at 1 µM (BT-474 cells) [%]
1600 | 8000 | 140 | 1000 | 1250 | CN(C)C/C=C/C(=O)Nc1cc2c(Nc3ccc(F)c(Cl)c3)c(C#N)cnc2cc1OC1CCOC1 (centres unmarked) [Example 4, (E)-N-(4-(3-CHLORO-4-FLUOROPHENYLAMINO)-3-CYANO-7-(TETRAHYDROFURAN-3-YL-OXY)QUINOLIN-6-YL)-4-(DIMETHYLAMINO)-BUT-2-ENAMIDE] | 331 | 79 | –
1200 | 1700 | – | 878 | 1700 | CN(C)C/C=C/C(=O)Nc1cc2c(Nc3ccc(OCc4ccccc4F)c(Cl)c3)c(C#N)cnc2cc1OC1CCOC1 (centres unmarked) [Example 8, (E)-N-(4-(4-(2-FLUOROBENZYLOXY)-3-CHLOROPHENYLAMINO)-3-CYANO-7-(TETRAHYDROFURAN-3-YL-OXY)QUINOLIN-6-YL)-4-(DIMETHYLAMINO)-BUT-2-ENAMIDE] | 188 | – | 79
1700 | 1580 | 5.2 | 458 | 1700 | CN(C)C/C=C/C(=O)Nc1cc2c(Nc3ccc(OCc4cccc(F)c4)c(Cl)c3)c(C#N)cnc2cc1OC1CCOC1 (centres unmarked) [Example 9, (E)-N-(4-(4-(3-FLUOROBENZYLOXY)-3-CHLOROPHENYLAMINO)-3-CYANO-7-(TETRAHYDROFURAN-3-YL-OXY)QUINOLIN-6-YL)-4-(DIMETHYLAMINO)-BUT-2-ENAMIDE] | 219 | 78 | –
1700 | 2000 | 9.9 | 1000 | 2300 | CN(C)C/C=C/C(=O)Nc1cc2c(Nc3ccc(OCc4ccccc4Cl)c(Cl)c3)c(C#N)cnc2cc1OC1CCOC1 (centres unmarked) [Example 10, (E)-N-(4-(4-(2-CHLOROBENZYLOXY)-3-CHLOROPHENYLAMINO)-3-CYANO-7-(TETRAHYDROFURAN-3-YL-OXY)QUINOLIN-6-YL)-4-(DIMETHYLAMINO)-BUT-2-ENAMIDE] | – | – | –
1500 | 1600 | 7.9 | 1200 | 1600 | CN(C)C/C=C/C(=O)Nc1cc2c(Nc3ccc(OCc4cccc(Cl)c4)c(Cl)c3)c(C#N)cnc2cc1OC1CCOC1 (centres unmarked) [Example 11, (E)-N-(4-(4-(3-CHLOROBENZYLOXY)-3-CHLOROPHENYLAMINO)-3-CYANO-7-(TETRAHYDROFURAN-3-YL-OXY)QUINOLIN-6-YL)-4-(DIMETHYLAMINO)-BUT-2-ENAMIDE] | 187 | – | –
1100 | 1800 | 35 | 810 | 3400 | CN(C)C/C=C/C(=O)Nc1cc2c(Nc3ccc(OCc4ccc(Cl)cc4)c(Cl)c3)c(C#N)cnc2cc1OC1CCOC1 (centres unmarked) [Example 16, (E)-N-(4-(4-(4-CHLOROBENZYLOXY)-3-CHLOROPHENYLAMINO)-3-CYANO-7-(TETRAHYDROFURAN-3-YL-OXY)QUINOLIN-6-YL)-4-(DIMETHYLAMINO)-BUT-2-ENAMIDE] | – | – | 72
1500 | 2000 | 17 | 1000 | 2400 | Cc1ccccc1COc1ccc(Nc2c(C#N)cnc3cc(OC4CCOC4)c(NC(=O)/C=C/CN(C)C)cc23)cc1Cl (centres unmarked) [Example 17, (E)-N-(4-(4-(2-METHYLBENZYLOXY)-3-CHLOROPHENYLAMINO)-3-CYANO-7-(TETRAHYDROFURAN-3-YL-OXY)QUINOLIN-6-YL)-4-(DIMETHYLAMINO)-BUT-2-ENAMIDE] | – | – | –
1100 | 2000 | 32 | 621 | 2000 | Cc1ccc(COc2ccc(Nc3c(C#N)cnc4cc(OC5CCOC5)c(NC(=O)/C=C/CN(C)C)cc34)cc2Cl)cc1 (centres unmarked) [Example 19, (E)-N-(4-(4-(4-METHYLBENZYLOXY)-3-CHLOROPHENYLAMINO)-3-CYANO-7-(TETRAHYDROFURAN-3-YL-OXY)QUINOLIN-6-YL)-4-(DIMETHYLAMINO)-BUT-2-ENAMIDE] | – | – | –
